Results as given in the NIST ThermoML archive (doi:10.1016/j.fluid.2014.11.020).
± gives the expanded uncertainty stated by the source.

Test: activity coefficient (dimensionless); of the first substance listed, at infinite dilution; xn = mol fraction of the nth substance listed
Settings: Liquid, Chromatography, x1 = 0

SMILES | activity coefficient (323.15 K) | activity coefficient (333.15 K) | activity coefficient (343.15 K)
ClC(Cl)(Cl)Cl [tetrachloromethane] + Cn1cc[n+](COCCCOC[n+]2ccn(C)c2)c1.N#C[N-]C#N.N#C[N-]C#N | 6.68 ± 0.46 | 6.94 ± 0.47 | 7 ± 0.48
c1ccccc1 [benzene] + CN(C)c1cc[n+](COCCCOC[n+]2ccc(N(C)C)cc2)cc1.O=S(=O)([N-]S(=O)(=O)C(F)(F)F)C(F)(F)F.O=S(=O)([N-]S(=O)(=O)C(F)(F)F)C(F)(F)F | 0.66 ± 0.05 | 0.67 ± 0.05 | 0.68 ± 0.05
CCCC(C)=O [pentan-2-one] + CCCOC[n+]1ccn(Cc2ccccc2)c1.N#C[N-]C#N | 1.45 ± 0.1 | 1.51 ± 0.1 | 1.51 ± 0.1
CC(C)OC(C)C [diisopropyl ether] + Cn1cc[n+](COCCCOC[n+]2ccn(C)c2)c1.O=S(=O)([N-]S(=O)(=O)C(F)(F)F)C(F)(F)F.O=S(=O)([N-]S(=O)(=O)C(F)(F)F)C(F)(F)F | 6.31 ± 0.43 | 6.51 ± 0.44 | 5.54 ± 0.38
C#CCCCCC [1-heptyne] + CCCOC[n+]1ccc(N(C)C)cc1.O=S(=O)([N-]S(=O)(=O)C(F)(F)F)C(F)(F)F | 3.33 ± 0.23 | 3.35 ± 0.23 | 3.34 ± 0.23
c1ccncc1 [pyridine] + CCCCCCCCn1cc[n+](COCCCOC[n+]2ccn(CCCCCCCC)c2C)c1C.N#C[N-]C#N.N#C[N-]C#N | 0.4 ± 0.03 | 0.38 ± 0.03 | 0.38 ± 0.03
C#CCCCCC [1-heptyne] + CN(C)c1cc[n+](COCCCOC[n+]2ccc(N(C)C)cc2)cc1.O=S(=O)([N-]S(=O)(=O)C(F)(F)F)C(F)(F)F.O=S(=O)([N-]S(=O)(=O)C(F)(F)F)C(F)(F)F | 4.2 ± 0.29 | 4.09 ± 0.28 | 4.01 ± 0.27
C#CCCCC [1-hexyne] + CCCOC[n+]1ccc(N(C)C)cc1.O=S(=O)([N-]S(=O)(=O)C(F)(F)F)C(F)(F)F | 2.51 ± 0.17 | 2.5 ± 0.17 | 2.5 ± 0.17
CCCCCCCCCC [decane] + CCCOC[n+]1ccn(Cc2ccccc2)c1.N#C[N-]C#N | 144 ± 9.9 | 123 ± 8.4 | 105 ± 7.2
CCCCCCCCCCCCC [tridecane] + CCCOC[n+]1ccn(C)c1.O=S(=O)([N-]S(=O)(=O)C(F)(F)F)C(F)(F)F | 201 ± 14 | 165 ± 11 | 147 ± 10
CC(C)O [propan-2-ol] + CCCCCCCCn1cc[n+](COCCCOC[n+]2ccn(CCCCCCCC)c2C)c1C.O=S(=O)([N-]S(=O)(=O)C(F)(F)F)C(F)(F)F.O=S(=O)([N-]S(=O)(=O)C(F)(F)F)C(F)(F)F | 0.68 ± 0.05 | 0.61 ± 0.04 | 0.56 ± 0.04
CCCCCCCCC [nonane] + CCCCCCCCn1cc[n+](COCCC)c1C.O=S(=O)([N-]S(=O)(=O)C(F)(F)F)C(F)(F)F | 7.93 ± 0.54 | 7.42 ± 0.51 | 6.93 ± 0.47
C[N+](=O)[O-] [nitromethane] + CCCOC[n+]1ccn(C)c1.O=S(=O)([N-]S(=O)(=O)C(F)(F)F)C(F)(F)F | 0.55 ± 0.04 | 0.53 ± 0.04 | 0.53 ± 0.04
C1CCCCCC1 [cycloheptane] + CCCOC[n+]1ccn(Cc2ccccc2)c1.O=S(=O)([N-]S(=O)(=O)C(F)(F)F)C(F)(F)F | 13.4 ± 0.91 | 15.8 ± 1.1 | 20.5 ± 1.4
CCC(=O)CC [pentan-3-one] + CCCOC[n+]1ccn(Cc2ccccc2)c1.F[B-](F)(F)F | 1.73 ± 0.12 | 1.74 ± 0.12 | 1.75 ± 0.12
CCCCCCC [heptane] + CCCCCCCCn1cc[n+](COCCCOC[n+]2ccn(CCCCCCCC)c2C)c1C.O=S(=O)([N-]S(=O)(=O)C(F)(F)F)C(F)(F)F.O=S(=O)([N-]S(=O)(=O)C(F)(F)F)C(F)(F)F | 4.67 ± 0.32 | 4.51 ± 0.31 | 4.49 ± 0.31
c1ccncc1 [pyridine] + CCCOC[n+]1ccn(Cc2ccccc2)c1.F[B-](F)(F)F | 0.6 ± 0.04 | 0.61 ± 0.04 | 0.65 ± 0.04
CC(C)O [propan-2-ol] + Cn1cc[n+](COCCCOC[n+]2ccn(C)c2)c1.O=S(=O)([N-]S(=O)(=O)C(F)(F)F)C(F)(F)F.O=S(=O)([N-]S(=O)(=O)C(F)(F)F)C(F)(F)F | 1.31 ± 0.09 | 1.22 ± 0.08 | 1.05 ± 0.07
CCC(C)CC [3-methylpentane] + CCCCCCCCn1cc[n+](COCCCOC[n+]2ccn(CCCCCCCC)c2C)c1C.N#C[N-]C#N.N#C[N-]C#N | 3.48 ± 0.24 |  | 
Cc1cccc(C)c1 [1,3-dimethylbenzene] + N#C[N-]C#N.N#C[N-]C#N.c1ccc(Cn2cc[n+](COCCCOC[n+]3ccn(Cc4ccccc4)c3)c2)cc1 | 8.85 ± 0.6 | 8.51 ± 0.58 | 8.32 ± 0.57
CCCCCCCCCCCCCC [tetradecane] + CCCOC[n+]1ccn(C)c1.F[B-](F)(F)F | 2700 ± 190 | 2500 ± 170 | 2300 ± 160
c1ccccc1 [benzene] + CCCCCCCCn1cc[n+](COCCC)c1C.N#C[N-]C#N | 1.39 ± 0.09 | 1.23 ± 0.08 | 1.07 ± 0.07
CC1CCCCC1 [methylcyclohexane] + CCCCCCCCn1cc[n+](COCCCOC[n+]2ccn(CCCCCCCC)c2C)c1C.N#C[N-]C#N.N#C[N-]C#N | 5.75 ± 0.39 | 5.07 ± 0.35 | 4.82 ± 0.33
ClCCl [dichloromethane] + CCCOC[n+]1ccn(Cc2ccccc2)c1.O=S(=O)([N-]S(=O)(=O)C(F)(F)F)C(F)(F)F | 0.52 ± 0.04 | 0.44 ± 0.04 | 0.37 ± 0.03
CCCCCC [hexane] + CCCCCCCCn1cc[n+](COCCC)c1C.O=S(=O)([N-]S(=O)(=O)C(F)(F)F)C(F)(F)F | 3.82 ± 0.26 | 3.74 ± 0.25 | 3.12 ± 0.21
CCCCCC [hexane] + CCCOC[n+]1ccc(N(C)C)cc1.O=S(=O)([N-]S(=O)(=O)C(F)(F)F)C(F)(F)F | 11.9 ± 0.81 | 11 ± 0.75 | 10.1 ± 0.69
Cc1ccccc1 [toluene] + CN(C)c1cc[n+](COCCCOC[n+]2ccc(N(C)C)cc2)cc1.O=S(=O)([N-]S(=O)(=O)C(F)(F)F)C(F)(F)F.O=S(=O)([N-]S(=O)(=O)C(F)(F)F)C(F)(F)F | 0.92 ± 0.06 | 0.94 ± 0.06 | 0.96 ± 0.06
CC#N [acetonitrile] + Cn1cc[n+](COCCCOC[n+]2ccn(C)c2)c1.O=S(=O)([N-]S(=O)(=O)C(F)(F)F)C(F)(F)F.O=S(=O)([N-]S(=O)(=O)C(F)(F)F)C(F)(F)F | 0.28 ± 0.03 | 0.28 ± 0.03 | 0.24 ± 0.03
ClC(Cl)(Cl)Cl [tetrachloromethane] + CCCOC[n+]1ccn(Cc2ccccc2)c1.F[B-](F)(F)F | 5.01 ± 0.34 | 4.71 ± 0.32 | 4.58 ± 0.31
CCCCCC [hexane] + CCCCCCCCn1cc[n+](COCCCOC[n+]2ccn(CCCCCCCC)c2C)c1C.O=S(=O)([N-]S(=O)(=O)C(F)(F)F)C(F)(F)F.O=S(=O)([N-]S(=O)(=O)C(F)(F)F)C(F)(F)F | 3.74 ± 0.25 | 3.59 ± 0.24 | 3.45 ± 0.23
